Results as given in US6414014B1 (Bristol-Myers Squibb Company, priority 1992, dated 2002).

Experiments:
[1] = Hematologic toxicity (myelotoxicity) in the randomized taxol study, weekly blood counts; type: in vivo, patients
Description: Responses were evaluated every two cycles.
Eligible patients were randomized according to a computerized randomization log. During therapy, hematology data (hemoglobin, white blood cell count, granulocytes and platelets) were collected, and toxicity assessments were continuously made. After each cycle, a physical history update was recorded, as well as tumor measurement, performance status (ECOG), hematology, chemistry (serum creatinine, billirubin, alkaline phosphatase, (SLOT (AST), CA125) and a toxicity assessment. A quality of life assessment was also made after each cycle, and every two months until six months after treatment stopped.
White blood cell (WBC) counts, absolute neutrophil count (ANC), platelet counts, and hemoglobin (Hb) concentration were the primary variables used to evaluate treatment related myelosuppression. The World Health Orgination, WHO, grades of nadir for the entire study population of 157 patients during course 1 are presented in the table below. Leukopenia and neutropenia were the most frequent and severe hemotologic adverse effects observed during the first couse of treatment. 53% (83/156) of the patients had Grade III or IV neutropenia, while 39% (61/157) had Grade III or IV leukopenia.

[2] = 6-hour IV infusion every 21 days without premedication; cited from earlier work
[3] = arm 135/3 (mg/m^2/infusion hours), n = 39, course 1
[4] = arm 135/24 (mg/m^2/infusion hours), n = 44, course 1
[5] = arm 175/3 (mg/m^2/infusion hours), n = 29, course 1
[6] = arm 175/4 (mg/m^2/infusion hours), n = 45, course 1

## CC(=O)O[C@H]1C(=O)[C@@]2(C)[C@H]([C@H](OC(=O)c3ccccc3)[C@]3(O)C[C@H](OC(=O)[C@H](O)[C@@H](NC(=O)c4ccccc4)c4ccccc4)C(C)=C1C3(C)C)[C@]1(OC(C)=O)CO[C@@H]1C[C@@H]2O [taxol]
[1]; [3]
  AMC Count, WHO grade III nadir, patients: 4 (10) n (%)
  AMC Count, WHO grade IV nadir, patients: 1 (3) n (%)
  Platelet Count, WHO grade 0 nadir, patients: 36 (92) n (%)
  Platelet Count, WHO grade I nadir, patients: 2 (5) n (%)
  Platelet Count, WHO grade II nadir, patients: 1 (3) n (%)
  Platelet Count, WHO grade III nadir, patients: 0 n (%)
  Platelet Count, WHO grade IV nadir, patients: 0 n (%)
  WBC Count, WHO grade 0 nadir, patients: 15 (38) n (%)
  WBC Count, WHO grade I nadir, patients: 13 (33) n (%)
  WBC Count, WHO grade II nadir, patients: 7 (18) n (%)
  WBC Count, WHO grade III nadir, patients: 3 (8) n (%)
  WBC Count, WHO grade IV nadir, patients: 1(3) n (%)
[1]; [4]
  AMC Count, WHO grade 0 nadir, patients: 6 (14) n (%)
  AMC Count, WHO grade I nadir, patients: 2 (15) n (%)
  AMC Count, WHO grade II nadir, patients: 7 (16) n (%)
  AMC Count, WHO grade III nadir, patients: 6 (14) n (%)
  AMC Count, WHO grade IV nadir, patients: 23 (52) n (%)
  Platelet Count, WHO grade 0 nadir, patients: 43 (98) n (%)
  Platelet Count, WHO grade I nadir, patients: 1 (2) n (%)
  Platelet Count, WHO grade II nadir, patients: 0 n (%)
  Platelet Count, WHO grade III nadir, patients: 0 n (%)
  Platelet Count, WHO grade IV nadir, patients: 0 n (%)
  WBC Count, WHO grade 0 nadir, patients: 4 (9) n (%)
  WBC Count, WHO grade I nadir, patients: 5 (11) n (%)
  WBC Count, WHO grade II nadir, patients: 11 (25) n (%)
  WBC Count, WHO grade III nadir, patients: 20 (46) n (%)
  WBC Count, WHO grade IV nadir, patients: 4 (9) n (%)
[1]; [5]
  AMC Count, WHO grade 0 nadir, patients: 11 (38) n (%)
  AMC Count, WHO grade I nadir, patients: 2 (7) n (%)
  AMC Count, WHO grade II nadir, patients: 3 (10) n (%)
  AMC Count, WHO grade III nadir, patients: 6 (21) n (%)
  AMC Count, WHO grade IV nadir, patients: 7 (24) n (%)
  Platelet Count, WHO grade 0 nadir, patients: 29 (100) n (%)
  Platelet Count, WHO grade I nadir, patients: 0 n (%)
  Platelet Count, WHO grade II nadir, patients: 0 n (%)
  Platelet Count, WHO grade III nadir, patients: 0 n (%)
  Platelet Count, WHO grade IV nadir, patients: 0 n (%)
  WBC Count, WHO grade 0 nadir, patients: 11 (38) n (%)
  WBC Count, WHO grade I nadir, patients: 6 (21) n (%)
  WBC Count, WHO grade II nadir, patients: 7 (24) n (%)
  WBC Count, WHO grade III nadir, patients: 5 (17) n (%)
  WBC Count, WHO grade IV nadir, patients: 0 — n (%)
[1]; [6]
  AMC Count, WHO grade 0 nadir, patients: 2 (5) n (%)
  AMC Count, WHO grade I nadir, patients: 1 (2) n (%)
  AMC Count, WHO grade II nadir, patients: 5 (11) n (%)
  AMC Count, WHO grade III nadir, patients: 8 (18) n (%)
  AMC Count, WHO grade IV nadir, patients: 28 (63) n (%)
  Platelet Count, WHO grade 0 nadir, patients: 39 (87) n (%)
  Platelet Count, WHO grade I nadir, patients: 3 (7) n (%)
  Platelet Count, WHO grade II nadir, patients: 1 (2) n (%)
  Platelet Count, WHO grade III nadir, patients: 1 (2) n (%)
  Platelet Count, WHO grade IV nadir, patients: 1 (2) n (%)
  WBC Count, WHO grade 0 nadir, patients: 1 (2) n (%)
  WBC Count, WHO grade I nadir, patients: 5 (11) n (%)
  WBC Count, WHO grade II nadir, patients: 11 (25) n (%)
  WBC Count, WHO grade III nadir, patients: 22 (49) n (%)
  WBC Count, WHO grade IV nadir, patients: 6 (13) n (%)
[1]; course 1
  severe leukopenia (grade 3 and grade 4 pooled), 24-hour versus 3-hour infusion: more frequently
[1]; course 1, 61/157, all arms
  patients with Grade III or IV leukopenia: 39%
[1]; course 1, 83/156, all arms
  patients with Grade III or IV neutropenia: 53%
[1]; course 1, two patients, all arms
  patients with severe thrombocytopenia: 1%
[1]; high dose arms, 55/74
  incidence of severe neutropenia: 74%
[1]; long-term infusion arms
  incidence of severe neutropenia: 85%
[1]; long-term infusion, 26/55
  anemia of any grade in patients with normal baseline Hb values: 47%
[1]; low dose arms, 43/83
  incidence of severe neutropenia: 52%
[1]; short-term infusion
  anemia of any grade in patients with normal baseline Hb values: 28%
[1]; short-term infusion arms
  incidence of severe neutropenia: 32%
[2]
  maximum tolerated dose: 275 mg/m^2
